Results as given in patent US20230072854A1, “PARAXANTHINE-BASED BIOACTIVE COMPOSITION AND METHOD OF USE THEREOF” (Ingenious Ingredients, LP, priority 2020, published 2023).
“Also recorded” adds a separate entry of the source.

Tests used:
Format in all cases: in vivo, human
subjects = assay: Paraxanthine pre-workout, subject reports; details: single subject, own words
Protocol: Health subjects were administered paraxanthine and asked to report their experience. Subjects reported the following.

volunteers [1] = assay: Go/No-Go test, double blind crossover vs placebo; details: 200 mg; for Response Time Average: in ms (unit assumed)
Source text: (§1) In a double blind, randomized, crossover, and repeated measures manner, 13 volunteers (10 male, 3 female, average age 24±5 years, average body weight 72.91±19.30 kg, average height 169.96±11.84 cm, average BMI 24.80±3.71 kg/m^2) participated in this study. Participants limited ingestion of caffeine and other stimulants to normal use for 48-hours, fasted for 8-hours and reported to the lab and completed 4 different cognitive function tests to assess short-term attention and inhibitory control (Go-No Go Test), sustained attention (Vigilance Task Test), working memory (Sternberg Task Test) and cognitive flexibility (Berg-Washington Card Sorting Test). Once completed, the participants ingested either a placebo or 200 mg of paraxanthine (WGI, TX, USA) with 8 ounces of water. Participants repeated cognitive function tests 1, 2, 3, 4, 5, and 6 hours after ingestion of the supplement. After one-week participants repeated the experiment while consuming the other treatment.
(§2) Data were analyzed by a General Linear Model multivariate and univariate analyses with repeated measures using body weight as a covariate. Data are expressed as means±standard deviations for the placebo (PLA) and Paraxanthine (PrX). Greenhouse-Geisser univariate p-levels are listed for time (T), weight×time (W×T) and group×time (G×T) interactions effects. Pairwise comparison is indicated by the following superscripts: †=[…] difference from baseline value; *=[…] difference from baseline; a=[…] difference between groups; b=[…] difference between groups. Eta2 vaules of […] are considered small, […] medium, and >0.14 are considered large.
A test of sustained attention and response control (i.e., attention/inhibition). Lower response times represents better ability to pay attention and inhibitory control.

volunteers [2] = assay: Berg-Washington Card Sorting Task Test (BCST), double blind crossover vs placebo; details: 200 mg
Source text: as §1, §2
Berg-Washington Card Sorting Task Test is a test of basic cognitive flexibility or set-shifting between old/new rule changes. The test involves reasoning, learning, executive control and attention shifting. It is particularly sensitive to the inability to shift set. Less errors means subjects were able to both recognize and ‘shift’ to a new rule with higher ability. […]

[3] = Mean (SEM) over all hours, listed as PrX

Structure (SMILES): Cn1c(=O)[nH]c2ncn(C)c2c1=O [paraxanthine, 1,7-dimethylxanthine]
- experience reported by subject (subjects): happier, better, more energy and focused; also recorded: phenomenal; also recorded: clean energy, but not stressed or stimmed; also recorded: it works
- Round 1 Condition P mean response time (FIG. 6) (volunteers [1]): no significant differences over time or between treatments
- percentage of correct answers, in words (volunteers [1]): maintained percentage of correct answers
- Correct Response Mean Accuracy (%) (volunteers [1]; Mean (SEM) over all hours): 92.5%
- Round 1: Condition P Mean - Response Time (Millisecond) (volunteers [1]; Mean (SEM) over all hours): 394.55 ± 18.07 Millisecond
- Round 2: Condition P Mean - Response Time (Millisecond) (volunteers [1]; Mean (SEM) over all hours): 356.55 ± 18.00 Millisecond
- Round 2: Condition R Mean - Response Time (Millisecond) (volunteers [1]; Mean (SEM) over all hours): 396.32 ± 20.27 Millisecond
- Response Time Average (volunteers [1]; Mean (SEM) over all hours): 374.94 ± 17.45
- Correct Response Mean Accuracy (%) (volunteers [1]; Mean (SEM) over all hours, listed as PX): 92.5 ± 1.3%
- response times to correctly respond compared to PLA (volunteers [1]; acute): faster response times
- Correct Response Mean Accuracy (%) (volunteers [1]; hour 0 (before ingestion)): 93.0 ± 2.9%
- Round 1: Condition P Mean - Response Time (Millisecond) (volunteers [1]; hour 0 (before ingestion)): 392.29 ± 44.29 Millisecond
- Round 1: Condition R Mean - Response Time (Millisecond) (volunteers [1]; hour 0 (before ingestion)): 344.30 ± 70.08 Millisecond
- Round 2: Condition P Mean - Response Time (Millisecond) (volunteers [1]; hour 0 (before ingestion)): 345.19 ± 37.11 Millisecond
- Round 2: Condition R Mean - Response Time (Millisecond) (volunteers [1]; hour 0 (before ingestion)): 401.46 ± 52.36 Millisecond
- Response Time Average (volunteers [1]; hour 0 (before ingestion)): 373.88 ± 43.64
- Correct Response Mean Accuracy (%) (volunteers [1]; hour 1 after ingestion): 93.7 ± 2.3%
- Round 1: Condition P Mean - Response Time (Millisecond) (volunteers [1]; hour 1 after ingestion): 387.51 ± 38.34 Millisecond
- Round 1: Condition R Mean - Response Time (Millisecond) (volunteers [1]; hour 1 after ingestion): 336.24 ± 73.85 Millisecond
- Round 2: Condition P Mean - Response Time (Millisecond) (volunteers [1]; hour 1 after ingestion): 346.39 ± 47.07 Millisecond
- Round 2: Condition R Mean - Response Time (Millisecond) (volunteers [1]; hour 1 after ingestion): 390.30 ± 41.57 Millisecond
- Response Time Average (volunteers [1]; hour 1 after ingestion): 366.68 ± 36.59
- Correct Response Mean Accuracy (%) (volunteers [1]; hour 2 after ingestion): 92.9 ± 3.6%
- Round 1: Condition P Mean - Response Time (Millisecond) (volunteers [1]; hour 2 after ingestion): 392.71 ± 38.09 Millisecond
- Round 1: Condition R Mean - Response Time (Millisecond) (volunteers [1]; hour 2 after ingestion): 347.17 ± 59.16 Millisecond
- Round 2: Condition P Mean - Response Time (Millisecond) (volunteers [1]; hour 2 after ingestion): 352.72 ± 46.18 Millisecond
- Round 2: Condition R Mean - Response Time (Millisecond) (volunteers [1]; hour 2 after ingestion): 389.31 ± 39.82 Millisecond
- Response Time Average (volunteers [1]; hour 2 after ingestion): 371.09 ± 30.25
- Correct Response Mean Accuracy (%) (volunteers [1]; hour 3 after ingestion): 91.7%
- Round 1: Condition P Mean - Response Time (Millisecond) (volunteers [1]; hour 3 after ingestion): 402.18 Millisecond
- Round 1: Condition R Mean - Response Time (Millisecond) (volunteers [1]; hour 3 after ingestion): 360.11 Millisecond
- Round 2: Condition P Mean - Response Time (Millisecond) (volunteers [1]; hour 3 after ingestion): 372.09 Millisecond
- Round 2: Condition R Mean - Response Time (Millisecond) (volunteers [1]; hour 3 after ingestion): 401.47 Millisecond
- Response Time Average (volunteers [1]; hour 3 after ingestion): 384.07
- Correct Response Mean Accuracy (%) (volunteers [1]; hour 4 after ingestion): 91.3%
- Round 1: Condition P Mean - Response Time (Millisecond) (volunteers [1]; hour 4 after ingestion): 387.65 Millisecond
- Round 1: Condition R Mean - Response Time (Millisecond) (volunteers [1]; hour 4 after ingestion): 350.94 Millisecond
- Round 2: Condition P Mean - Response Time (Millisecond) (volunteers [1]; hour 4 after ingestion): 362.02 Millisecond
- Round 2: Condition R Mean - Response Time (Millisecond) (volunteers [1]; hour 4 after ingestion): 399.45 Millisecond
- Response Time Average (volunteers [1]; hour 4 after ingestion): 375.03
- Correct Response Mean Accuracy (%) (volunteers [1]; hour 5 after ingestion): 93.1%
- Round 1: Condition P Mean - Response Time (Millisecond) (volunteers [1]; hour 5 after ingestion): 406.70 Millisecond
- Round 1: Condition R Mean - Response Time (Millisecond) (volunteers [1]; hour 5 after ingestion): 365.08 Millisecond
- Round 2: Condition P Mean - Response Time (Millisecond) (volunteers [1]; hour 5 after ingestion): 359.18 Millisecond
- Round 2: Condition R Mean - Response Time (Millisecond) (volunteers [1]; hour 5 after ingestion): 405.58 Millisecond
- Response Time Average (volunteers [1]; hour 5 after ingestion): 383.60
- Correct Response Mean Accuracy (%) (volunteers [1]; hour 6 after ingestion): 91.6 ± 4.4%
- Round 1: Condition P Mean - Response Time (Millisecond) (volunteers [1]; hour 6 after ingestion): 393.51 ± 53.02 Millisecond
- Round 1: Condition R Mean - Response Time (Millisecond) (volunteers [1]; hour 6 after ingestion): 352.14 ± 56.48 Millisecond
- Round 2: Condition P Mean - Response Time (Millisecond) (volunteers [1]; hour 6 after ingestion): 357.05 ± 99.19 Millisecond
- Round 2: Condition R Mean - Response Time (Millisecond) (volunteers [1]; hour 6 after ingestion): 387.41 ± 53.47 Millisecond
- Response Time Average (volunteers [1]; hour 6 after ingestion): 371.27 ± 53.76
- average response time (FIG. 10) (volunteers [1]; round 1+round 2): maintained mean response time over time
- Round 1 Condition R mean response time (FIG. 7) (volunteers [1]; round 1, vs PLA): better maintained mean response time over time compared to PLA
- Round 2 Condition P mean response time (FIG. 8) (volunteers [1]; round 2, vs PLA): better maintained mean response time over time compared to PLA
- Round 2 Condition R mean response time (FIG. 9) (volunteers [1]; round 2, vs PLA): non-significantly better maintained mean response time over time compared to PLA
- change of mean response times (volunteers [1]; vs baseline): −0.3%
- decrease of correct responses in comparison to baseline (volunteers [1]; vs baseline): 0.5%
- Mean Correct Responses higher compared to placebo (volunteers [1]; vs placebo): 1.1%
- number of correct answers in BCST, in words (volunteers [2]): significantly increased
- number of errors in BCST, in words (volunteers [2]): reducing the number of errors
- perseverative errors PEBL (FIG. 3) (volunteers [2]): no significant time or between treatment effects
- BCST Correct Response (volunteers [2]; Mean (SEM) over all hours): 97.3
- BCST Errors (volunteers [2]; Mean (SEM) over all hours): 18.0
- BCST Perseverative Errors (PAR rules) (volunteers [2]; Mean (SEM) over all hours): 8.7 ± 1.6
- BCST Perseverative Errors (PEBL) (volunteers [2]; Mean (SEM) over all hours): 12.7 ± 1.2
- BCST Correct Response (volunteers [2]; [3]): 102.5 ± 3.4
- BCST Errors (volunteers [2]; [3]): 18.0 ± 3.9
- change in correct answers after 6 hours (volunteers [2]; after 6 hours): +1.9
- change in errors after 6 hours (volunteers [2]; after 6 hours): −0.6
- correct responses adjusted for differences in baseline values (volunteers [2]; baseline-adjusted): 2.5
- errors adjusted for differences in baseline values (volunteers [2]; baseline-adjusted): −1.5
- less errors than placebo, adjusted for differences in baseline values (volunteers [2]; baseline-adjusted, vs placebo): 600%
- more correct responses than placebo, adjusted for differences in baseline values (volunteers [2]; baseline-adjusted, vs placebo): 150%
- BCST Correct Response (volunteers [2]; hour 0 (before ingestion)): 100.0 ± 6.6
- BCST Errors (volunteers [2]; hour 0 (before ingestion)): 19.5 ± 6.6
- BCST Perseverative Errors (PAR rules) (volunteers [2]; hour 0 (before ingestion)): 10.1 ± 4.6
- BCST Perseverative Errors (PEBL) (volunteers [2]; hour 0 (before ingestion)): 13.7 ± 5.0
- BCST Correct Response (volunteers [2]; hour 1 after ingestion): 101.4 ± 3.6
- BCST Errors (volunteers [2]; hour 1 after ingestion): 18.1 ± 4.3
- BCST Perseverative Errors (PAR rules) (volunteers [2]; hour 1 after ingestion): 8.8 ± 2.1
- BCST Perseverative Errors (PEBL) (volunteers [2]; hour 1 after ingestion): 12.5 ± 3.0
- BCST Correct Response (volunteers [2]; hour 2 after ingestion): 104.3
- BCST Errors (volunteers [2]; hour 2 after ingestion): 16.8
- BCST Perseverative Errors (PAR rules) (volunteers [2]; hour 2 after ingestion): 7.8
- BCST Perseverative Errors (PEBL) (volunteers [2]; hour 2 after ingestion): 12.3
- number of correct responses (FIG. 1) (volunteers [2]; hour 2 and 4 over baseline): significantly (p<0.5) increased
- BCST Correct Response (volunteers [2]; hour 3 after ingestion): 100.6 ± 5.8
- BCST Errors (volunteers [2]; hour 3 after ingestion): 17.0 ± 3.9
- BCST Perseverative Errors (PAR rules) (volunteers [2]; hour 3 after ingestion): 8.5 ± 2.9
- BCST Perseverative Errors (PEBL) (volunteers [2]; hour 3 after ingestion): 12.3 ± 3.2
- number of correct responses between groups (FIG. 1) (volunteers [2]; hour 4, between groups): showed a trend (p<0.1) between groups
- BCST Correct Response (volunteers [2]; hour 4 after ingestion): 106.4
- BCST Errors (volunteers [2]; hour 4 after ingestion): 19.0
- BCST Perseverative Errors (PAR rules) (volunteers [2]; hour 4 after ingestion): 8.6
- BCST Perseverative Errors (PEBL) (volunteers [2]; hour 4 after ingestion): 13.3
- BCST Correct Response (volunteers [2]; hour 5 after ingestion): 101.5 ± 4.0
- BCST Errors (volunteers [2]; hour 5 after ingestion): 18.5 ± 4.2
- BCST Perseverative Errors (PAR rules) (volunteers [2]; hour 5 after ingestion): 8.8 ± 3.6
- BCST Perseverative Errors (PEBL) (volunteers [2]; hour 5 after ingestion): 13.1 ± 3.6
- perseverative errors PAR between groups (FIG. 4) (volunteers [2]; hour 6, between groups): trend (p<0.1) towards less errors between groups
- BCST Correct Response (volunteers [2]; hour 6 after ingestion): 103.5
- BCST Errors (volunteers [2]; hour 6 after ingestion): 16.3
- BCST Perseverative Errors (PAR rules) (volunteers [2]; hour 6 after ingestion): 8.1
- BCST Perseverative Errors (PEBL) (volunteers [2]; hour 6 after ingestion): 11.7
- errors compared to baseline (FIG. 2) (volunteers [2]; hour 6 vs baseline): trend (p<0.1) towards less error
- less errors than placebo, overall (volunteers [2]; overall, vs placebo): 23.7%
- more correct responses than placebo, overall (volunteers [2]; overall, vs placebo): 5.3%
